Measurements published in patent publication US20240190855A1 (Relay Therapeutics, Inc., priority 2021, published 2024).

The compounds below were run against T1, CDK2/Cyclin E complex (Homo sapiens, UniProt P24941) (assay: CDK2/Cyclin E fluorescence-based microfluidic mobility shift assay (CDK2 Biochemical Caliper Assay)). Conditions: read-out: Biochemical CDK2/CyclinE Caliper IC50.
T1 construct: purchased Eurofins 14-475
How it was run: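 Wild-type CDK2/Cyclin E was preincubated with compound and ATP for 30 min at RT before the 5-FAM-QSPKKG peptide was added. Final concentrations were 0.1 nM enzyme, 2000 uM ATP, 1.5 uM peptide and 1% DMSO. After 20 hr at RT and EDTA stop, substrate conversion was read by microfluidic mobility shift over an 11-point, 3-fold dilution series.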

Question: `COCc1cc(C(=O)Nc2cc([C@H]3CC[C@@H](Oc4nnccc4C(F)(F)F)C3)[nH]n2)n(C)n1` (single isomer, unassigned) [Example 476] was tested. Which IC50 did it give?
Answer: ≤ 100 nM

Question: `COCc1cc(C(=O)Nc2cc([C@@H]3CC[C@H](Oc4nnccc4C(F)(F)F)C3)[nH]n2)n(C)n1` (single isomer, unassigned) [Example 477] was tested. Which IC50 did it give?
Answer: ≤ 100 nM

Question: For `COCc1cc(C(=O)Nc2cc([C@@H]3CC[C@H](Oc4c(C)ccnc4C)C3)[nH]n2)n(C)n1` (single isomer, unassigned) [Example 478], which IC50 is on record?
Answer: 1000 to 100000 nM

Question: For `COCc1cc(C(=O)Nc2cc([C@H]3CC[C@@H](Oc4c(C)ccnc4C)C3)[nH]n2)n(C)n1` (single isomer, unassigned) [Example 479], which IC50 is on record?
Answer: 1000 to 100000 nM

Question: How did the IC50 turn out when `COCc1cc2c(Nc3cc([C@H]4CC[C@@H](OC(=O)NC(C)C)C4)[nH]n3)nccn2n1` (single isomer, unassigned) [Example 480] was run?
Answer: ≤ 100 nM

Question: For `COCc1cc2c(Nc3cc([C@@H]4CC[C@H](OC(=O)NC(C)C)C4)[nH]n3)nccn2n1` (single isomer, unassigned) [Example 481], which IC50 is on record?
Answer: ≤ 100 nM

Question: `Cc1cc(CC(=O)Nc2cc([C@H]3CC[C@@H](NC(=O)[C@@H](O)C(C)C)C3)[nH]n2)on1` (single isomer, unassigned) [Example 482] was tested. Which IC50 did it give?
Answer: 1000 to 100000 nM

Question: `Cc1cc(CC(=O)Nc2cc([C@@H]3CC[C@H](NC(=O)[C@@H](O)C(C)C)C3)[nH]n2)on1` (single isomer, unassigned) [Example 483] was tested. Which IC50 did it give?
Answer: 250 to 1000 nM

Question: With `Cc1ncccc1O[C@@H]1CC[C@H](c2cc(Nc3nccn4nccc34)n[nH]2)C1` (single isomer, unassigned) [Example 484] as the compound, how does the IC50 read?
Answer: 250 to 1000 nM

Question: Which IC50 does the source give for `Cc1ncccc1O[C@H]1CC[C@@H](c2cc(Nc3nccn4nccc34)n[nH]2)C1` (single isomer, unassigned) [Example 485] here?
Answer: ≤ 100 nM

Question: How did the IC50 turn out when `Cc1ncccc1O[C@@H]1CC[C@H](c2cc(Nc3ncnc4ncccc34)n[nH]2)C1` (single isomer, unassigned) [Example 486] was run?
Answer: 1000 to 100000 nM

Question: Which IC50 does the source give for `Cc1ncccc1O[C@H]1CC[C@@H](c2cc(Nc3ncnc4ncccc34)n[nH]2)C1` (single isomer, unassigned) [Example 487] here?
Answer: ≤ 100 nM

Question: `COCc1cc(C(=O)Nc2cc([C@H]3CC[C@@H](Oc4cncnc4C)C3)[nH]n2)n(C)n1` (single isomer, unassigned) [Example 490] was tested. Which IC50 did it give?
Answer: 1000 to 100000 nM

Question: For `COCc1cc(C(=O)Nc2cc([C@@H]3CC[C@H](Oc4cncnc4C)C3)[nH]n2)n(C)n1` (single isomer, unassigned) [Example 491], which IC50 is on record?
Answer: 1000 to 100000 nM

Question: How did the IC50 turn out when `COCc1cc(C(=O)Nc2cc([C@H]3CC[C@@H](Oc4cc(C(C)C)cnn4)C3)[nH]n2)n(C)n1` (single isomer, unassigned) [Example 492] was run?
Answer: ≤ 100 nM

Question: With `COCc1cc(C(=O)Nc2cc([C@@H]3CC[C@H](Oc4cc(C(C)C)cnn4)C3)[nH]n2)n(C)n1` (single isomer, unassigned) [Example 493] as the compound, how does the IC50 read?
Answer: 100 to 250 nM

Question: With `COCc1cc(C(=O)Nc2cc([C@H]3CC[C@@H](Oc4nccnc4C)C3)[nH]n2)n(C)n1` (single isomer, unassigned) [Example 494] as the compound, how does the IC50 read?
Answer: 250 to 1000 nM

Question: Which IC50 does the source give for `COCc1cc(C(=O)Nc2cc([C@@H]3CC[C@H](Oc4nccnc4C)C3)[nH]n2)n(C)n1` (single isomer, unassigned) [Example 495] here?
Answer: 250 to 1000 nM

Question: `c1cncc(O[C@@H]2CC[C@H](c3cc(Nc4ncnc5ncccc45)n[nH]3)C2)c1` (single isomer, unassigned) [Example 498] was tested. Which IC50 did it give?
Answer: 1000 to 100000 nM

Question: With `c1cncc(O[C@H]2CC[C@@H](c3cc(Nc4ncnc5ncccc45)n[nH]3)C2)c1` (single isomer, unassigned) [Example 499] as the compound, how does the IC50 read?
Answer: 250 to 1000 nM

Question: `CC(C)NC(=O)O[C@@H]1CC[C@H](c2cc(Nc3nccn4nc(C(F)(F)F)cc34)n[nH]2)C1` (single isomer, unassigned) [Example 500] was tested. Which IC50 did it give?
Answer: ≤ 100 nM

Question: How did the IC50 turn out when `CC(C)NC(=O)O[C@H]1CC[C@@H](c2cc(Nc3nccn4nc(C(F)(F)F)cc34)n[nH]2)C1` (single isomer, unassigned) [Example 501] was run?
Answer: ≤ 100 nM

Question: With `COCc1cc(C(=O)Nc2cc([C@H]3CC[C@@H](Oc4nccnc4C(F)F)C3)[nH]n2)n(C)n1` (single isomer, unassigned) [Example 502] as the compound, how does the IC50 read?
Answer: 1000 to 100000 nM

Question: For `COCc1cc(C(=O)Nc2cc([C@@H]3CC[C@H](Oc4cccnc4C(F)F)C3)[nH]n2)n(C)n1` (single isomer, unassigned) [Example 503], which IC50 is on record?
Answer: 1000 to 100000 nM

Question: For `c1cncc(O[C@@H]2CC[C@H](c3cc(Nc4nccn5nccc45)n[nH]3)C2)c1` (single isomer, unassigned) [Example 504], which IC50 is on record?
Answer: 1000 to 100000 nM

Question: For `c1cncc(O[C@H]2CC[C@@H](c3cc(Nc4nccn5nccc45)n[nH]3)C2)c1` (single isomer, unassigned) [Example 505], which IC50 is on record?
Answer: ≤ 100 nM

Question: With `COCc1cc(C(=O)Nc2cc([C@H]3CC[C@@H](Oc4ncccc4C(C)C)C3)[nH]n2)n(C)n1` (single isomer, unassigned) [Example 506] as the compound, how does the IC50 read?
Answer: ≤ 100 nM

Question: How did the IC50 turn out when `COCc1cc(C(=O)Nc2cc([C@@H]3CC[C@H](Oc4ncccc4C(C)C)C3)[nH]n2)n(C)n1` (single isomer, unassigned) [Example 507] was run?
Answer: ≤ 100 nM

Question: `COCc1cc(C(=O)Nc2cc([C@H]3CC[C@@H](Oc4nccnc4C(C)C)C3)[nH]n2)n(C)n1` (single isomer, unassigned) [Example 508] was tested. Which IC50 did it give?
Answer: ≤ 100 nM

Question: Which IC50 does the source give for `CCc1ccnnc1O[C@@H]1CC[C@H](c2cc(NC(=O)c3cc(COC)nn3C)n[nH]2)C1` (single isomer, unassigned) [Example 509] here?
Answer: ≤ 100 nM

Question: For `CCc1ccnnc1O[C@H]1CC[C@@H](c2cc(NC(=O)c3cc(COC)nn3C)n[nH]2)C1` (single isomer, unassigned) [Example 510], which IC50 is on record?
Answer: ≤ 100 nM

Question: How did the IC50 turn out when `COCc1cc2c(Nc3cc([C@H]4CC[C@@H](Oc5cccnc5C)C4)[nH]n3)nccn2n1` (single isomer, unassigned) [Example 511] was run?
Answer: 1000 to 100000 nM

Question: For `COCc1cc2c(Nc3cc([C@@H]4CC[C@H](Oc5cccnc5C)C4)[nH]n3)nccn2n1` (single isomer, unassigned) [Example 512], which IC50 is on record?
Answer: 100 to 250 nM

Question: With `COCc1cc2c(Nc3cc([C@H]4CC[C@@H](Oc5cccnc5)C4)[nH]n3)nccn2n1` (single isomer, unassigned) [Example 525] as the compound, how does the IC50 read?
Answer: 1000 to 100000 nM

Question: `COCc1cc2c(Nc3cc([C@@H]4CC[C@H](Oc5cccnc5)C4)[nH]n3)nccn2n1` (single isomer, unassigned) [Example 526] was tested. Which IC50 did it give?
Answer: 100 to 250 nM

Question: How did the IC50 turn out when `CC(C)NC(=O)O[C@@H]1CC[C@H](c2cc(Nc3ccc4c(n3)C(C)(C)NC4=O)n[nH]2)C1` (single isomer, unassigned) [Example 527] was run?
Answer: ≤ 100 nM

Question: For `CC(C)NC(=O)O[C@H]1CC[C@@H](c2cc(Nc3ccc4c(n3)C(C)(C)NC4=O)n[nH]2)C1` (single isomer, unassigned) [Example 528], which IC50 is on record?
Answer: ≤ 100 nM

Question: `CNC(=O)O[C@@H]1CC[C@H](c2cc(Nc3ccc4c(n3)C(C)(C)NC4=O)n[nH]2)C1` (single isomer, unassigned) [Example 529] was tested. Which IC50 did it give?
Answer: ≤ 100 nM

Question: Which IC50 does the source give for `CNC(=O)O[C@H]1CC[C@@H](c2cc(Nc3ccc4c(n3)C(C)(C)NC4=O)n[nH]2)C1` (single isomer, unassigned) [Example 530] here?
Answer: ≤ 100 nM

Question: Which IC50 does the source give for `COCc1cc(C(=O)Nc2cc([C@@H]3CC[C@H](Oc4nccnc4C(C)C)C3)[nH]n2)n(C)n1` (single isomer, unassigned) [Example 531] here?
Answer: ≤ 100 nM

Question: With `COCc1cc(C(=O)Nc2cc([C@H]3CC[C@@H](Oc4nncc5cnccc45)C3)[nH]n2)n(C)n1` (single isomer, unassigned) [Example 534] as the compound, how does the IC50 read?
Answer: ≤ 100 nM

Question: `COCc1cc(C(=O)Nc2cc([C@@H]3CC[C@H](Oc4nncc5cnccc45)C3)[nH]n2)n(C)n1` (single isomer, unassigned) [Example 535] was tested. Which IC50 did it give?
Answer: 250 to 1000 nM

Question: Which IC50 does the source give for `COCc1cc(C(=O)Nc2cc([C@@H]3C[C@H](Oc4cnccc4C4CC4)CO3)[nH]n2)n(C)n1` (single isomer, unassigned) [Example 538] here?
Answer: 1000 to 100000 nM

Question: Which IC50 does the source give for `COCc1cc(C(=O)Nc2cc([C@H]3C[C@@H](Oc4cnccc4C4CC4)CO3)[nH]n2)n(C)n1` (single isomer, unassigned) [Example 539] here?
Answer: 250 to 1000 nM

Question: Which IC50 does the source give for `COCc1cc(C(=O)Nc2cc([C@H]3CC[C@@H](c4ccc(C)[nH]c4=O)C3)[nH]n2)n(C)n1` (single isomer, unassigned) [Example 542] here?
Answer: 250 to 1000 nM

Question: How did the IC50 turn out when `COCc1cc(C(=O)Nc2cc([C@@H]3CC[C@H](c4ccc(C)[nH]c4=O)C3)[nH]n2)n(C)n1` (single isomer, unassigned) [Example 543] was run?
Answer: 1000 to 100000 nM

Question: How did the IC50 turn out when `Cc1ncccc1O[C@@H]1CC[C@H](c2cc(Nc3ccc4c(c3)C(C)(C)NC4=O)n[nH]2)C1` (single isomer, unassigned) [Example 546] was run?
Answer: ≤ 100 nM

Question: For `Cc1ncccc1O[C@H]1CC[C@@H](c2cc(Nc3ccc4c(c3)C(C)(C)NC4=O)n[nH]2)C1` (single isomer, unassigned) [Example 547], which IC50 is on record?
Answer: ≤ 100 nM

Question: `CC(C)NC(=O)O[C@@H]1CC[C@H](c2cc(Nc3ccc4c(c3)C(C)(C)NC4=O)n[nH]2)C1` (single isomer, unassigned) [Example 548] was tested. Which IC50 did it give?
Answer: ≤ 100 nM

Question: Which IC50 does the source give for `CC(C)NC(=O)O[C@H]1CO[C@@H](c2cc(Nc3ccc4c(c3)C(C)(C)NC4=O)n[nH]2)C1` (single isomer, unassigned) [Example 549] here?
Answer: ≤ 100 nM

Question: How did the IC50 turn out when `COCc1cc(C(=O)Nc2cc([C@H]3CC[C@@H](Oc4nnccc4C4CCC4)C3)[nH]n2)n(C)n1` (single isomer, unassigned) [Example 550] was run?
Answer: ≤ 100 nM

Question: Which IC50 does the source give for `COCc1cc(C(=O)Nc2cc([C@@H]3CC[C@H](Oc4nnccc4C4CCC4)C3)[nH]n2)n(C)n1` (single isomer, unassigned) [Example 551] here?
Answer: ≤ 100 nM

Question: For `COCc1cc(C(=O)Nc2cc([C@H]3CC[C@@H](c4ccc(C(C)C)cn4)C3)[nH]n2)n(C)n1` (single isomer, unassigned) [Example 552], which IC50 is on record?
Answer: 1000 to 100000 nM

Question: With `COCc1cc(C(=O)Nc2cc([C@@H]3CC[C@H](c4ccc(C(C)C)cn4)C3)[nH]n2)n(C)n1` (single isomer, unassigned) [Example 553] as the compound, how does the IC50 read?
Answer: 1000 to 100000 nM
